Experiments:
[1] = molecular target: Muscarinic acetylcholine receptor M3 (Cavia porcellus, UniProt Q8VH26); experiment: Antagonist activity at Cavia porcellus (guinea pig) ileum M3 receptor after 30 min; assay type: tissue-based; details: read-out: pA2 (converted)
Muscarinic receptor 2 = molecular target: T1, Muscarinic receptor 2 (Cavia porcellus, UniProt Q8VH27); experiment: Antagonist activity at Cavia porcellus (guinea pig) left atria M2 receptor after 2 hr; details: read-out: pA2 (converted)
T1 sequence (Q8VH27 whole entry): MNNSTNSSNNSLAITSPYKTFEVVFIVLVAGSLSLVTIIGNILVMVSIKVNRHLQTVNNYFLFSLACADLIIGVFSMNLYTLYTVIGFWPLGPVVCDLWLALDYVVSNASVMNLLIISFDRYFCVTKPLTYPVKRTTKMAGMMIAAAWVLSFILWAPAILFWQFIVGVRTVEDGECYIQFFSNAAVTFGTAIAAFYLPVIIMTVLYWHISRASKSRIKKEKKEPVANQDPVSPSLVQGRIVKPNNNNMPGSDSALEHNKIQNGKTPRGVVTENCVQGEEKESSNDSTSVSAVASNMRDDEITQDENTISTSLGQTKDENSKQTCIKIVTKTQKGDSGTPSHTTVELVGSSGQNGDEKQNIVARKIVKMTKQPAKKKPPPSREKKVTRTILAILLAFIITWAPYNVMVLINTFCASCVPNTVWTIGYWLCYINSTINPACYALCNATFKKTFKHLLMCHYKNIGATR

[2] = molecular target: T2, Muscarinic receptor 2 (Cavia porcellus) (UniProt Q8VH27); experiment: Binding affinity to Cavia porcellus (guinea pig) left atria M2 receptor after 2 hr
T2 sequence (whole entry): T1 sequence (Q8VH27 whole entry)

[3] = molecular target: Muscarinic acetylcholine receptor M3 (Cavia porcellus) (UniProt Q8VH26); experiment: Binding affinity to Cavia porcellus (guinea pig) ileum M3 receptor after 30 min; assay type: tissue-based
Cavia porcellus = species on record: Cavia porcellus; experiment: Selectivity ratio of pKb for Cavia porcellus (guinea pig) ileum M3 receptor to pKb for Cavia porcellus (guinea pig) left atria M2 receptor; assay type: tissue-based; details: Atrium/Ileum
[4] = Selectivity ratio of pKb for rabbit vas deferens M1 receptor to pKb for guinea pig left atria M2 receptor
Oryctolagus cuniculus = species on record: Oryctolagus cuniculus; experiment: Binding affinity to Oryctolagus cuniculus (rabbit) vas deferens M1 receptor after 1 hr
[5] = Selectivity ratio of pKb for rabbit vas deferens M1 receptor to pKb for guinea pig ileum M3 receptor; assay type: tissue-based

Chain of Muscarinic acetylcholine receptor M3 (Cavia porcellus) (Q8VH26 1-587): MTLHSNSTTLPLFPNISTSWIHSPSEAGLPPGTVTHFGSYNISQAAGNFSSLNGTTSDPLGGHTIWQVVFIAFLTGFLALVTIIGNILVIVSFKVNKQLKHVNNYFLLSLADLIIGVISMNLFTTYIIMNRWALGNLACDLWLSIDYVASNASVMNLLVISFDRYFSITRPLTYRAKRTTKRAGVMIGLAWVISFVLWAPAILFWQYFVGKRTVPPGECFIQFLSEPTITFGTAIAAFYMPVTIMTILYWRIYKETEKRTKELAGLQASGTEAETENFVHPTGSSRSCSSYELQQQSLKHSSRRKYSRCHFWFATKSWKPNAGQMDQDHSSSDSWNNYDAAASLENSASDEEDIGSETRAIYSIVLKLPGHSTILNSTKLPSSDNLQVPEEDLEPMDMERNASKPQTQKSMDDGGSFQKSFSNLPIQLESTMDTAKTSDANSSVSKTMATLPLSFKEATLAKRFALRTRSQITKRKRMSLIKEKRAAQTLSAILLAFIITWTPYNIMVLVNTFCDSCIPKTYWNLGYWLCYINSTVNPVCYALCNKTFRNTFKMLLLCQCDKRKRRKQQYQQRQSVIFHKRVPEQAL
Chain of Muscarinic acetylcholine receptor M3 (Q8VH26 whole entry): as the sequence (Q8VH26 1-587) above

For CN(C)[C@H]1CO[C@H](C(c2ccccc2)c2ccccc2)OC1, the Kb [1] was 0.372 µM and the Kb (Muscarinic receptor 2) was 1.58 µM.

In the case of CN(C)[C@H]1CO[C@@H](C(c2ccccc2)c2ccccc2)OC1, the Kb [1] is reported as 0.00537 µM and the Kb (Muscarinic receptor 2) is reported as 0.0282 µM.

For CN(C)CC1COC(c2ccccc2)(c2ccccc2)O1 (centres undefined), the pKb [2] was 7.11, the pKb [3] was 6.72 and the Ratio pKb (Cavia porcellus) was 0.4. The Ratio pKb [4] was 1, the pKb (Oryctolagus cuniculus) was 7.15 and the Ratio pKb [5] was 3.

Compound C[C@H]1OC(c2ccccc2)(c2ccccc2)O[C@@H]1CN(C)C (relative stereo) has a pKb [2] of 6.71, a pKb [3] of 6.71 and a Ratio pKb (Cavia porcellus) of 1. For the same compound, the Ratio pKb [4] was 1, the pKb (Oryctolagus cuniculus) was 6.87 and the Ratio pKb [5] was 1.

Work on CN(C)C[C@@H]1CO[C@@H](C(c2ccccc2)c2ccccc2)O1 yielded a pKb [2] of 6.56, a pKb [3] of 6.67 and a Ratio pKb (Cavia porcellus) of 1. It also gave a Ratio pKb [4] of 2, a pKb (Oryctolagus cuniculus) of 6.9 and a Ratio pKb [5] of 2.

In the case of C[C@@H]1OC(c2ccccc2)(c2ccccc2)O[C@@H]1CN(C)C (relative stereo), the pKb [2] is reported as 6.48, the pKb [3] is reported as 6.44 and the Ratio pKb (Cavia porcellus) is reported as 0.9. The Ratio pKb [4] was 0.7, the pKb (Oryctolagus cuniculus) was 6.35 and the Ratio pKb [5] was 0.8.

In the case of CN(C)C[C@@H]1CO[C@H](C(c2ccccc2)c2ccccc2)O1, the pKb [2] is reported as 6.62, the pKb [3] is reported as 6.07 and the Ratio pKb (Cavia porcellus) is reported as 0.3. The Ratio pKb [4] was 5, the pKb (Oryctolagus cuniculus) was 7.31 and the Ratio pKb [5] was 17.

From ChEMBL document CHEMBL3046433, “Synthesis and Antimuscarinic Activity of Derivatives of 2-Substituted-1,3-Dioxolanes” (Med Chem Res, 2005)
